Results on two compounds are retold here after patent US8012983B2, “Substituted triazolopyrazines useful for the treatment of degenerative and inflammatory diseases” (Galapagos NV, priority 2008, dated 2011).

Data set [1] deals with MMP1 expression by activated synovial fibroblasts (RASFs). As to the kind of experiment: 'MMP assay': complex trigger-induced MMP1 expression by synovial fibroblasts (MMP1 ELISA). The data set is classed as cell-based. The note with it: Homo sapiens, Fibroblast; RASFs, complex trigger, 48 hrs; read-out: MMP1 IC50. The essentials:
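Synovial fibroblasts seeded at 3,000 cells/well, treated with compound, then triggered with supernatant of TNF-α-treated THP-1 cells, diluted in M199 with low FBS. MMP1 in supernatant quantified by sandwich ELISA with biotinylated anti-MMP1 and streptavidin-HRP chemiluminescent detection.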

Data set [2] is described as follows: Tolerability of compounds in healthy mice (body weight). The note with it: 100 mg/kg/d, po, up to two weeks, DBA/1J mice, FIG. 6A. It counts as in vivo. Here is the method: This protocol is designed to assess the tolerability of the compounds of the invention in healthy DBA/1J mice to determine the “therapeutic window” as defined by the dosing range between efficacious (mouse therapeutic Collagen-Induced Arthritis model) and toxic doses.
Compounds are prepared for a dosing regimen of 100 mg/kg/d, po, free base, in a standard volume of injection of 0.1 mL/10 g of mice (equivalent to 10 mg/1 mL). For solution preparations, compounds were dissolved in 0.5% methyl-cellulose and 1% DMSO, once a week.
Groups are randomized based on body weight and treated for up to two weeks. Each group contained 5 mice and received either test compound at 100 mg/kg, a comparison compound at 100 mg/kg/d (Compound A) or vehicle on a daily basis in a dosing volume of 200 μL per mouse.
Potential drug toxicity is monitored by observation every day and by recording body weights three times a week for weight loss. All statistical analyses were performed using Student's t test.
To assess the general tolerability of the treatments, the total body weight is followed throughout the course of the study.

For orientation: IC50 means the concentration that inhibits the measured activity by half. For the compound `CC(C)N1C[C@@H]2C[C@H]1CN2c1ccc(Nc2ncc(-c3ccc4c(c3)CNC4=O)n3ncnc23)cc1` [Compound 1, 5-{8-[4-((1S,4S)-5-Isopropyl-2,5-diaza-bicyclo[2.2.1]hept-2-yl)-phenylamino]-[1,2,4]triazolo[1,5-a]pyrazin-5-yl}-2,3-dihydro-isoindol-1-one], the IC50 in data set [1] was > 1000 nM. For the same compound, the “General tolerability: total body weight compared to the vehicle” value in data set [2] was “no statistically significant difference”.

Consider `CC(C)N1C[C@@H]2C[C@H]1CN2c1ccc(Nc2ncc(-c3coc(C(N)=O)c3)n3ncnc23)cc1` [Compound 2, 4-{8-[4-((1S,4S)-5-Isopropyl-2,5-diaza-bicyclo[2.2.1]hept-2-yl)-phenylamino]-[1,2,4]triazolo[1,5-a]pyrazin-5-yl}-furan-2-carboxamide], for which the IC50 in data set [1] lay within 1 to 1000 nM. The “General tolerability: total body weight compared to the vehicle” value in data set [2] is on record as “no statistically significant difference”.
